Data set [1] can be described thus: Estimate of Draize score by regression of HDR values (Example 3). To be noted: Draize score estimated by 17.61 + 0.624 1% HDR + 0.481 0.016% HDR. From the text: The results thus obtained were subjected to regression using the following associative equation to obtain the above-described correlation coefficient. 17.61 + 0.624 1% HDR + 0.481 0.016% HDR [formula] Consequently, a very good correspondence was observed even with evaluation by a plurality of concentrations.

Data set [2] can be described thus: Estimate of Draize score by regression of RBC and HDR values (Example 4). To be noted: estimated value based on the Draize method using the associative equation with RBC, 2% HDR, 0.25% HDR, 0.063% HDR. The text has this: • Method 1: The procedure as described in Example 1 was repeated. • Method 2: The procedure as described in Example 2 was repeated.
The results obtained from the two methods were subjected to regression using the associative equation below: […]
Here, the calculated values are estimated values based on the Draize method using the above-described associative equation, and the found values are measurements according to the Draize method.

The test system of another data set is rabbit. Put plainly: Draize method, ocular irritation. The class given is in vivo. To be noted: for Draize score Ocular irritation: Table 1, Conc. of test substance 0.5%; for Actual evaluation: Table 3, Draize ocular irritation score used for the regression; for Found value: Table 4, measurements according to the Draize method. From the text: The assay and evaluation as to whether or not a foreign substance gives harmful irritation to a living body which induces vital reactions, for example, inflammation, hemolysis, opacification, and swelling, are essential in the product development in the technical fields of cosmetics, medicines, and other medical materials and oleo chemicals where a particular substance is directly applied to the living body At the present time, experimental animals are mainly used for these assay and evaluation. In the tests, particularly in irritation tests, use is made of a skin irritation test (primary irritation and accumulating irritation), an ocular irritation test, a patch test, and a mucous membrane irritation test (tunica mucosa oris and urogenital mucosa membrane). For example, in the ocular irritation test, the Draize method, which uses a rabbit, is generally adopted. In this method, the ocular irritation by a test substance is assayed particularly through (1) the determination of the degree of clouding of the cornea, (2) the evaluation of the incidence of congestion or edema of the conjunctiva, and (3) the evaluation of the incidence of congestion or swelling of the iris.
The same test substance as that used above was subjected to a test according to the Draize method.

The mark [3] stands for this setting: Table 1, Conc. of test substance 0.5%.

Molecules are shown by their SMILES. Like-named read-outs stand apart in the source and are kept apart here.

With `CCCCCCCCCCCCOS(=O)(=O)[O-].[Na+]` [SDS, sodium dodecylsulfate], the Estimated value in data set [1] was 43.331. The Calculated value in data set [2] is listed as 70.5078. In addition, in the data set on rabbit, the “Draize score Ocular irritation” value is 35.1, the Actual evaluation came to 35.100 and the Found value is reported as 70. Under setting [3], the “Draize score Primary ocular irritation” value was 6.9.

As to `CCCCCCCCCCCCCCCC[n+]1ccccc1` [Cetyl pyridinium chloride], in the data set with rabbit, the “Draize score Ocular irritation” value is reported as 70, the Actual evaluation was 70.000 and the Found value is listed as 35. Under “in vivo”, the “Draize score Primary ocular irritation” value stood at 4.0 and the “Draize score Primary skin irritation” value came out at 4.0.

Take `CCCCCCCCOc1ccccc1` [Octyl phenyl ether]: in data set [1], the Estimated value is 17.610. Further, the Calculated value in data set [2] is reported as 6.9685. Besides, in the data set on rabbit, the “Draize score Ocular irritation” value is recorded as 8.7, the Actual evaluation is 3.700 and the Found value turned out to be 8.7. Moreover, the “Draize score Primary ocular irritation” value under setting [3] is given as 0.2.

The values above are taken from EP0600087A1, “METHOD AND KIT OF IN VITRO IRRITATION TEST” (priority 1991, dated 1993).
